Measurements as given in ChEMBL document CHEMBL1201862, “PubChem BioAssay data set” (2004).
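A five-concentration, 48-hour dose response in 96-well plates underlies each endpoint, interpolated linearly between surrounding concentrations. Abbreviation: GI50, concentration required for 50% inhibition of growth.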 Active and inactive are the calls of the source. Rule as the data show it: active = GI50 up to about 1.1 µM and inactive = higher. Square brackets hold non-standard residues; d marks the D form. Peptide text beside a SMILES is read from it. * marks the point of attachment. Boc = CC(C)(C)OC(=O)*; Lac = C[CH](O)C(=O)O; OBn = c1ccc(CO*)cc1

How the values were obtained:
Assay in all cases: inhibition of tumour cell growth, NCI panel, 48 h
A549 = tested on: A549
CAKI-1 = tested on: CAKI-1
HOP-62 = tested on: HOP-62
HT-29 = tested on: HT-29
K562 = tested on: K562
LOX IMVI = tested on: LOX IMVI
NCI-H460 = tested on: NCI-H460
NCI/ADR-RES = tested on: NCI/ADR-RES
OVCAR-3 = tested on: OVCAR-3
OVCAR-4 = tested on: OVCAR-4
SF-268 = tested on: SF-268
SK-MEL-28 = tested on: SK-MEL-28
SK-MEL-5 = tested on: SK-MEL-5
SNB-75 = tested on: SNB-75
SW-620 = tested on: SW-620
U-251 = tested on: U-251
UACC-62 = tested on: UACC-62
UO-31 = tested on: UO-31
DU-145 = tested on: DU-145
MDA-MB-231 = tested on: MDA-MB-231

Measured: GI50

O=C1NC(O)CCN1C1OC(CO)C(O)C1O (configuration not stated)
inactive: A549 > 250 µM | CAKI-1 > 250 µM | HOP-62 > 228 µM | HT-29 > 250 µM | K562 > 250 µM | LOX IMVI > 136 µM | NCI-H460 > 250 µM | NCI/ADR-RES > 250 µM | OVCAR-3 > 250 µM | OVCAR-4 > 250 µM | SF-268 > 250 µM | SK-MEL-28 > 250 µM | SK-MEL-5 > 66.4 µM | SNB-75 > 250 µM | SW-620 > 250 µM | U-251 > 79.8 µM | UACC-62 > 250 µM | UO-31 > 250 µM

CC(OC(=O)C(Cc1ccccc1)NC(=O)C(Cc1ccccc1)NC(=O)OC(C)(C)C)C(=O)OCc1ccccc1 (stereo not drawn) (Boc-Phe-Phe-[Lac]-OBn; configuration not given here)
inactive: CAKI-1 > 100 µM | DU-145 > 100 µM | HOP-62 > 100 µM | K562 > 100 µM | MDA-MB-231 > 100 µM | NCI-H460 > 100 µM | NCI/ADR-RES > 100 µM | OVCAR-3 > 100 µM | SK-MEL-28 > 100 µM | SK-MEL-5 > 100 µM | SNB-75 93.1 µM | U-251 > 100 µM | UACC-62 > 10 µM | UO-31 > 100 µM

Cn1c(=O)c(C#N)c(O)c2cc3ccccc3nc21
inactive: A549 > 100 µM | CAKI-1 > 100 µM | K562 > 100 µM | LOX IMVI > 100 µM | NCI-H460 > 100 µM | OVCAR-4 > 100 µM | SF-268 > 100 µM | SK-MEL-28 > 100 µM | SK-MEL-5 > 100 µM | SNB-75 44.1 µM | SW-620 > 100 µM | U-251 > 100 µM | UO-31 > 100 µM

CC1CC(C[N+](=O)[O-])CC2(C1)OCCO2 (configuration not stated)
inactive: A549 > 100 µM | CAKI-1 > 100 µM | HOP-62 > 100 µM | K562 > 100 µM | NCI-H460 > 100 µM | OVCAR-3 > 100 µM | OVCAR-4 > 100 µM | SF-268 > 100 µM | SK-MEL-28 > 100 µM | SK-MEL-5 > 100 µM | SNB-75 > 100 µM | SW-620 > 100 µM | U-251 > 100 µM | UACC-62 > 100 µM | UO-31 > 100 µM

Cc1cc(=O)oc2c1cc1ccc3cccc4ccc2c1c34
inactive: CAKI-1 > 100 µM | HT-29 > 100 µM | K562 > 100 µM | LOX IMVI > 100 µM | NCI-H460 89.3 µM | OVCAR-3 > 100 µM | SF-268 > 100 µM | SK-MEL-28 > 100 µM | SK-MEL-5 > 100 µM | SNB-75 41 µM | SW-620 > 100 µM | U-251 41.2 µM | UACC-62 > 100 µM | UO-31 > 100 µM

Cc1ccc(C2CC(c3cccc([N+](=O)[O-])c3)=Nc3ccccc3S2)cc1 (configuration not stated)
inactive: A549 48.8 µM | CAKI-1 24.3 µM | HOP-62 > 62.8 µM | HT-29 32.4 µM | K562 20.6 µM | LOX IMVI 21.6 µM | NCI-H460 68.5 µM | OVCAR-3 28.5 µM | OVCAR-4 44.6 µM | SF-268 34.9 µM | SK-MEL-28 62.4 µM | SK-MEL-5 25.4 µM | SNB-75 21 µM | SW-620 16.1 µM | U-251 27.5 µM | UACC-62 25.4 µM | UO-31 20.8 µM

COc1ccc(C(=O)NNC(=O)c2nsc3ccccc23)cc1
inactive: A549 > 100 µM | HOP-62 44.5 µM | HT-29 61.7 µM | K562 39.4 µM | LOX IMVI 58.2 µM | OVCAR-3 30.8 µM | OVCAR-4 68.9 µM | SF-268 > 100 µM | SK-MEL-28 > 100 µM | SK-MEL-5 > 100 µM | SW-620 > 100 µM | U-251 41.1 µM | UACC-62 > 100 µM | UO-31 > 100 µM

CC1CC2=C(S(=O)(=O)c3ccccc3)CC(S(=O)(=O)c3ccccc3)(S(=O)(=O)c3ccccc3)CC21 (configuration not stated)
inactive: A549 > 100 µM | HOP-62 > 100 µM | HT-29 > 100 µM | K562 38.7 µM | LOX IMVI > 100 µM | NCI-H460 > 100 µM | OVCAR-3 > 100 µM | OVCAR-4 > 100 µM | SF-268 > 100 µM | SK-MEL-28 > 100 µM | SK-MEL-5 > 100 µM | SNB-75 25.1 µM | SW-620 > 100 µM | U-251 72.6 µM | UACC-62 > 100 µM | UO-31 > 100 µM

CC/C=C\C/C=C\C/C=C\CCCCCCCC(=O)OC [METHYL LINOLENATE]
inactive: A549 > 100 µM | CAKI-1 > 100 µM | HOP-62 > 100 µM | HT-29 > 100 µM | K562 45.5 µM | LOX IMVI 18.9 µM | NCI-H460 > 100 µM | NCI/ADR-RES > 100 µM | OVCAR-3 > 100 µM | OVCAR-4 > 100 µM | SF-268 > 100 µM | SK-MEL-28 > 100 µM | SK-MEL-5 > 100 µM | SNB-75 67.6 µM | SW-620 > 100 µM | U-251 > 100 µM | UACC-62 > 100 µM | UO-31 > 100 µM

O=C(OCCOC(=O)c1ccc2c(c1)C1(SCCS1)c1ccccc1-2)c1ccc2c(c1)C1(SCCS1)c1ccccc1-2
inactive: A549 > 100 µM | CAKI-1 > 100 µM | HOP-62 > 100 µM | HT-29 > 100 µM | K562 > 100 µM | LOX IMVI > 100 µM | NCI-H460 > 100 µM | OVCAR-3 > 100 µM | OVCAR-4 > 100 µM | SF-268 > 100 µM | SK-MEL-28 > 100 µM | SK-MEL-5 > 100 µM | SNB-75 > 100 µM | SW-620 > 100 µM | U-251 > 100 µM | UACC-62 > 100 µM | UO-31 > 100 µM

O=C1CCC(NC(=O)Cc2ccc(O)cc2)C(=O)N1 (configuration not stated)
inactive: A549 > 2500 µM | CAKI-1 > 2500 µM | HT-29 > 2500 µM | LOX IMVI > 2500 µM | NCI-H460 > 2500 µM | OVCAR-3 > 2500 µM | OVCAR-4 > 2500 µM | SF-268 > 2500 µM | SK-MEL-28 > 2500 µM | SK-MEL-5 > 2500 µM | SNB-75 589 µM | SW-620 > 2500 µM | U-251 > 2500 µM | UACC-62 > 2500 µM | UO-31 > 2500 µM

C[C@H]1S[C@@H](c2ccc(Cl)cc2Cl)N(NC(=O)c2ccncc2)C1=O
inactive: CAKI-1 56.2 µM | DU-145 71.3 µM | HOP-62 > 100 µM | HT-29 > 100 µM | K562 28.1 µM | MDA-MB-231 49.2 µM | NCI-H460 58.2 µM | NCI/ADR-RES 21.7 µM | OVCAR-3 35.6 µM | OVCAR-4 > 100 µM | SK-MEL-28 45.2 µM | SK-MEL-5 44.8 µM | SNB-75 80.5 µM | U-251 64 µM | UACC-62 29.6 µM | UO-31 37 µM
